Results from patent US9714238B2, “Therapeutic agents for ocular hypertension” (Allergan, Inc., priority 2010, dated 2017).

How the values were obtained:
EP2 [1] = target: T1, EP2 (Homo sapiens, UniProt P43116); test: EP2 cAMP functional assay; type: cell-based; conditions: unit inferred
Experimental: (§1) Data from running binding and activity studies on the compounds of the invention were carried out as described in the U.S. Pat. No. 7,427,685, the contents of which are incorporated herein by reference.

EP2 [2] = target: T1, EP2; test: EP2 binding; conditions: unit inferred
Experimental: as §1

EP4 [3] = target: T2, EP4 (Homo sapiens, UniProt P35408); test: EP4 cAMP functional assay; type: cell-based; conditions: unit inferred
T2 sequence (P35408 whole entry): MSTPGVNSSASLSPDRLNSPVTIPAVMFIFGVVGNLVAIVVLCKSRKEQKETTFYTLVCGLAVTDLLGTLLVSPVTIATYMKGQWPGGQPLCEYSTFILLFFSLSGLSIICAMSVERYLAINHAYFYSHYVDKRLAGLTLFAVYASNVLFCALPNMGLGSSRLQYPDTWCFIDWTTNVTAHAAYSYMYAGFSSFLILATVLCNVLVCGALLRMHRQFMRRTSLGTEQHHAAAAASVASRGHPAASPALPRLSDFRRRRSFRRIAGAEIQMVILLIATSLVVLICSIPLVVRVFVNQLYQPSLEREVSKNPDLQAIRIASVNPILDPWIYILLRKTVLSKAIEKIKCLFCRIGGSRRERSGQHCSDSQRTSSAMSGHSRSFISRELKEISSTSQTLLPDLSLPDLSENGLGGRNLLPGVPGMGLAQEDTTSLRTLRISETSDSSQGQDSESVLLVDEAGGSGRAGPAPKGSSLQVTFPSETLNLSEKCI
Experimental: as §1

EP4 [4] = target: T2, EP4; test: EP4 binding; conditions: unit inferred
Experimental: as §1

normotensive dogs = test: Intraocular pressure and ocular surface hyperemia in normotensive dogs; type: in vivo, dog
Experimental: Isopropyl 2-(3-(6-hexyl-1-naphthamido)phenoxy)acetate was tested in normotensive dogs at 0.05%, dosing once daily for 5 days. The maximum intraocular pressure (IOP) decrease from baseline was 4.7 mmHg (28%) at 30 h; the maximum ocular surface hyperemia (OSH) score was 1.0 at 26 h. This compound was also tested in laser-induced hypertensive monkeys, using one single day dose. At 0.05%, the maximum IOP decrease from baseline was 17.1 mmHg (48%) at 24 h.
Isopropyl 2-(3-(6-(1-hydroxyhexyl)-1-naphthamido)phenoxy)acetate was tested in normotensive dogs at two concentrations, dosing once daily for 5 days. At 0.005%, the maximum intraocular pressure (IOP) decrease from baseline was 4.1 mmHg (22%) at 4 h; the maximum ocular surface hyperemia (OSH) score was 1.6 at 2 h. At 0.01%, the maximum intraocular pressure (IOP) decrease from baseline was 4.4 mmHg (26%) at 4 h; the maximum ocular surface hyperemia (OSH) score was 1.5 at 50 h. This compound was also tested in laser-induced hypertensive monkeys at two concentrations, using one single day dose. At 0.005%, the maximum IOP decrease from baseline was 8.1 mmHg (30%) at 24 h. At 0.01%, the maximum IOP decrease from baseline was 15.4 mmHg (42%) at 24 h.
Isopropyl 2-(3-(6-butyl-1-naphthamido)phenoxy)acetate was tested in normotensive dogs at 0.01%, dosing once daily for 4 days. The maximum intraocular pressure (IOP) decrease from baseline was 5.1 mmHg (26%) at 78 h; the maximum ocular surface hyperemia (OSH) score was 0.9 at 4 h. This compound was also tested in laser-induced hypertensive monkeys, using one single day dose. At 0.01%, the maximum IOP decrease from baseline was 14.1 mmHg (38%) at 24 h.
Isopropyl 2-(3-(3-hexylquinoline-8-carboxamido)phenoxy)acetate was tested in normotensive dogs at 0.01%, dosing once daily for 5 days. The maximum intraocular pressure (IOP) decrease from baseline was 2.8 mmHg (14%) at 100 h; the maximum ocular surface hyperemia (OSH) score was 0.8 at 28 h. This compound was also tested in laser-induced hypertensive monkeys, using one single day dose. At 0.01%, the maximum IOP decrease from baseline was 8.8 mmHg (19%) at 6 h.

EP4 [5] = target: T2, EP4; test: EP4 flipr functional assay; type: cell-based; conditions: unit inferred
Experimental: as §1

hEP3A = target: T3, hEP3A (Homo sapiens, UniProt P43115); test: Other receptors functional activity, hEP3A; type: cell-based
T3 sequence (P43115 1-390): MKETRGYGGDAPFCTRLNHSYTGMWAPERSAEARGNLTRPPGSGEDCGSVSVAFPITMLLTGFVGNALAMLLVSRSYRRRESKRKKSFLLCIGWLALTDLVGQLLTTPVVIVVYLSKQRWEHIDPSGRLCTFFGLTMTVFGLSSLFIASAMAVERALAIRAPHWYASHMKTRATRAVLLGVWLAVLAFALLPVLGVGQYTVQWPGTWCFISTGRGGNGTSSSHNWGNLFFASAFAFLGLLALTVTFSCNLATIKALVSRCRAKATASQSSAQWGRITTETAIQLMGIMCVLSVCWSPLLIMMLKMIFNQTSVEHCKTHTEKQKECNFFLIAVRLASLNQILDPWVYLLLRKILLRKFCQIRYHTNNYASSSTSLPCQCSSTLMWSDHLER
Experimental: as §1

hTP = target: T4, hTP (Homo sapiens, UniProt P21731); test: Other receptors functional activity, hTP; type: cell-based
T4 sequence (P21731 1-343): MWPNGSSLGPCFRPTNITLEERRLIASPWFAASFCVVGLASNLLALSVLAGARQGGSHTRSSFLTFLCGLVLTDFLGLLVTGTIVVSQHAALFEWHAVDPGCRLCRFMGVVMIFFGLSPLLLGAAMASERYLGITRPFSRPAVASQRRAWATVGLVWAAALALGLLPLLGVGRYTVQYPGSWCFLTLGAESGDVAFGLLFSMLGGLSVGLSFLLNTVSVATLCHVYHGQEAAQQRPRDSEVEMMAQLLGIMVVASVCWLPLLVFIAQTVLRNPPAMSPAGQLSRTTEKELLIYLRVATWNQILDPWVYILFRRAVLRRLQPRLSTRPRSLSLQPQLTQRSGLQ
Experimental: as §1

T1 sequence (P43116 whole entry): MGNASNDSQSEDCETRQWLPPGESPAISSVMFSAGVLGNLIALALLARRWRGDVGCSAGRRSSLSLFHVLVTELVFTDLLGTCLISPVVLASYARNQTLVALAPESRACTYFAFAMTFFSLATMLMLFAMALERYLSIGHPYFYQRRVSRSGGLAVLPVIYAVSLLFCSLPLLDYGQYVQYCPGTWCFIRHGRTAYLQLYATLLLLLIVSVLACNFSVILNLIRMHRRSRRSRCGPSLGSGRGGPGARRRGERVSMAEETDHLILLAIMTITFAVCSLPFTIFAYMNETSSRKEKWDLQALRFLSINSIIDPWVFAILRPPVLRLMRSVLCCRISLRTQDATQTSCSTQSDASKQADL

SMILES | EC50 (EP2 [1]) | Ki (EP2 [2]) | Ki (EP4 [4]) | other results
CCCCc1cnc2c(C(=O)Nc3cccc(OCC(=O)O)c3)cccc2c1 [Example 13, 2-(3-(3-Butylquinoline-8-carboxamido)phenoxy)acetic acid] | 2 nM | 27 nM | 2.06 µM | EC50 (EP4 [3]): > 10 µM
CCCCc1ccc2c(C(=O)Nc3cccc(OCC(=O)OC(C)C)c3)cccc2c1 [Isopropyl 2-(3-(6-butyl-1-naphthamido)phenoxy)acetate] |  |  |  | maximum ocular surface hyperemia (OSH) score (normotensive dogs; 0.01%, once daily for 4 days, at 4 h): 0.9
CCCCCCc1ccc2c(C(=O)NCCc3ccc(C(=O)O)s3)cccc2c1 [Example 9, 5-(2-(6-Hexyl-1-naphthamido)ethyl)thiophene-2-carboxylic acid] | 25 nM | 3210 nM | 2.45 µM | EC50 (EP4 [5]): 9.4 µM
CCCCCCc1ccc2c(C(=O)Nc3cccc(OCC(=O)O)c3)cccc2c1 [Example 1, 2-(3-(6-Hexyl-1-naphthamido)phenoxy)acetic acid] | 2 nM | 99 nM | > 10 µM | 
CCCCc1ccc2c(C(=O)Nc3cccc(OCC(=O)O)c3)cccc2c1 [Example 3, 2-(3-(6-Butyl-1-naphthamido)phenoxy)acetic acid] | 1 nM | 51 nM | > 10 µM | 
CCc1ccc2c(C(=O)Nc3cccc(OCC(=O)O)c3)cccc2c1 [Example 6, 2-(3-(6-Ethyl-1-naphthamido)phenoxy)acetic acid] | 5 nM | 112 nM | > 10 µM | 
CCCCCC(O)c1ccc2c(C(=O)Nc3cccc(OCC(=O)OC(C)C)c3)cccc2c1 (centres unmarked) [Isopropyl 2-(3-(6-(1-hydroxyhexyl)-1-naphthamido)phenoxy)acetate] |  |  |  | maximum ocular surface hyperemia (OSH) score (normotensive dogs; 0.005%, once daily for 5 days, at 2 h): 1.6; maximum ocular surface hyperemia (OSH) score (normotensive dogs; 0.01%, once daily for 5 days, at 50 h): 1.5
CCCC(O)c1ccc2c(C(=O)Nc3cccc(OCC(=O)O)c3)cccc2c1 (centres unmarked) [Example 11, 2-(3-(6-(1-Hydroxybutyl)-1-naphthamido)phenoxy)acetic acid] | 0.7 nM | 63 nM | 5.31 µM | 
Cc1ccc2c(C(=O)Nc3cccc(OCC(=O)O)c3)cccc2c1 [Example 7, 2-(3-(6-Methyl-1-naphthamido)phenoxy)acetic acid] | 65 nM | 1190 nM | > 10 µM | 
CCCc1ccc2c(C(=O)Nc3cccc(OCC(=O)O)c3)cccc2c1 [Example 5, 2-(3-(6-Propyl-1-naphthamido)phenoxy)acetic acid] | 5 nM | 30 nM | 6.92 µM | EC50 (EP4 [5]): 7.13 µM
CCCCCOc1ccc2c(C(=O)Nc3cccc(OCC(=O)O)c3)cccc2c1 [Example 15, 2-(3-(6-(Pentyloxy)-1-naphthamido)phenoxy)acetic acid] | 25 nM | 201 nM | 8.48 µM | EC50 (EP4 [3]): > 10 µM
CCCCCCc1cnc2c(C(=O)Nc3cccc(OCC(=O)OC(C)C)c3)cccc2c1 [Isopropyl 2-(3-(3-hexylquinoline-8-carboxamido)phenoxy)acetate] |  |  |  | maximum ocular surface hyperemia (OSH) score (normotensive dogs; 0.01%, once daily for 5 days, at 28 h): 0.8
CCCCCCc1ccc2c(C(=O)Nc3cccc(OCC(=O)OC(C)C)c3)cccc2c1 [Isopropyl 2-(3-(6-hexyl-1-naphthamido)phenoxy)acetate] |  |  |  | maximum ocular surface hyperemia (OSH) score (normotensive dogs; 0.05%, once daily for 5 days, at 26 h): 1.0

Continued by falling EC50 (EP2 [1]), values first:

EC50 (EP2 [1]) | Ki (EP2 [2]) | Ki (EP4 [4]) | SMILES | other results
83 nM | 4600 nM | > 10 µM | O=C(O)COc1cccc(NC(=O)c2cccc3ccccc23)c1 [Example 8, 2-(3-(1-Naphthamido)phenoxy)acetic acid] | 
15 nM | 1200 nM | 7.68 µM | CCCCCCCc1ccc2c(C(=O)Nc3cccc(OCC(=O)O)c3)cccc2c1 [Example 4, 2-(3-(6-Heptyl-1-naphthamido)phenoxy)acetic acid] | EC50 (EP4 [5]): > 10 µM
12 nM | 350 nM | 2.03 µM | CCCCc1cnc2c(C(=O)NCCc3ccc(C(=O)O)s3)cccc2c1 [Example 14, 5-(2-(3-Butylquinoline-8-carboxamido)ethyl)thiophene-2-carboxylic acid] | EC50 (EP4 [3]): > 10 µM
2 nM | 383 nM | > 10 µM | CCCCCc1ccc2c(C(=O)Nc3cccc(OCC(=O)O)c3)cccc2c1 [Example 2, 2-(3-(6-Pentyl-1-naphthamido)phenoxy)acetic acid] | 
0.8 nM | 25 nM | 2.15 µM | CCCCCCc1cnc2c(C(=O)Nc3cccc(OCC(=O)O)c3)cccc2c1 [Example 12, 2-(3-(3-Hexylquinoline-8-carboxamido)phenoxy)acetic acid] | EC50 (EP4 [5]): 4.68 µM; EC50 (hEP3A): 13.3 µM; EC50 (hTP): 6.56 µM
0.2 nM | 37 nM | > 10 µM | CCCCCC(O)c1ccc2c(C(=O)Nc3cccc(OCC(=O)O)c3)cccc2c1 (centres unmarked) [Example 10, 2-(3-(6-(1-hydroxyhexyl)-1-naphthamido)phenoxy)acetic acid] | 
